Laboratory results as given in ChEMBL document CHEMBL2062407, “Synthesis of N²-modified 7-methylguanosine 5'-monophosphates as nematode translation inhibitors” (Bioorg Med Chem, 2012).

Columns and labels:
[1] = Inhibition of Ascaris suum eIF4E-3 assessed as inhibition of cap-dependent translation after 1 hr by cell-free Renilla luciferase reporter gene assay
[2] = test system: Ascaris suum; experiment: Ratio of m7GTP IC50 to compound IC50 for Ascaris suum eIF4E-3 assessed as inhibition of cap-dependent translation after 1 hr by cell-free Renilla luciferase reporter gene assay

Compound: C[n+]1cn([C@@H]2O[C@H](COP(=O)([O-])O)[C@@H](O)[C@H]2O)c2nc(N)[nH]c(=O)c21
- IC50 [1]: > 50 µM

Compound: C[n+]1cn([C@@H]2O[C@H](COP(=O)([O-])O)[C@@H](O)[C@H]2O)c2nc(NCc3ccc([N+](=O)[O-])cc3)[nH]c(=O)c21
- IC50 [1]: 12.6 µM

Compound: C[n+]1cn([C@@H]2O[C@H](COP(=O)([O-])O)[C@@H](O)[C@H]2O)c2nc(NCc3ccc(Cl)cc3)[nH]c(=O)c21
- IC50 [1]: 3.8 µM

Compound: CC(C)CN(C)c1nc2c(c(=O)[nH]1)[n+](C)cn2[C@@H]1O[C@H](COP(=O)([O-])O)[C@@H](O)[C@H]1O
- IC50 [1]: > 50 µM

Compound: C[n+]1cn([C@@H]2O[C@H](COP(=O)([O-])O)[C@@H](O)[C@H]2O)c2nc(NCc3ccc(-c4ccccc4)cc3)[nH]c(=O)c21
- IC50 [1]: 4.3 µM

Compound: C[n+]1cn([C@@H]2O[C@H](COP(=O)([O-])O)[C@@H](O)[C@H]2O)c2nc(NCc3ccccc3)[nH]c(=O)c21
- IC50 [1]: 2.9 µM

Compound: CC(C)CNc1nc2c(c(=O)[nH]1)[n+](C)cn2[C@@H]1O[C@H](COP(=O)([O-])O)[C@@H](O)[C@H]1O
- IC50 [1]: 4.5 µM

Compound: C[n+]1cn([C@@H]2O[C@H](COP(=O)([O-])OP(=O)(O)OP(=O)(O)O)[C@@H](O)[C@H]2O)c2nc(N)[nH]c(=O)c21
- IC50 [1]: 6.1 µM

Compound: C[n+]1cn([C@@H]2O[C@H](COP(=O)([O-])O)[C@@H](O)[C@H]2O)c2nc(NCC3CCCCC3)[nH]c(=O)c21
- IC50 [1]: 5.7 µM

Compound: CN(Cc1ccccc1)c1nc2c(c(=O)[nH]1)[n+](C)cn2[C@@H]1O[C@H](COP(=O)([O-])O)[C@@H](O)[C@H]1O
- IC50 [1]: > 50 µM

Compound: CCCCNc1nc2c(c(=O)[nH]1)[n+](C)cn2[C@@H]1O[C@H](COP(=O)([O-])O)[C@@H](O)[C@H]1O
- IC50 [1]: 3.9 µM

Compound: CCCCN(C)c1nc2c(c(=O)[nH]1)[n+](C)cn2[C@@H]1O[C@H](COP(=O)([O-])O)[C@@H](O)[C@H]1O
- IC50 [1]: > 50 µM

Compound: C[n+]1cn([C@@H]2O[C@H](COP(=O)([O-])O)[C@@H](O)[C@H]2O)c2nc(N(Cc3ccccc3)Cc3ccccc3)[nH]c(=O)c21
- IC50 [1]: > 50 µM

Compound: CCN(CC)c1nc2c(c(=O)[nH]1)[n+](C)cn2[C@@H]1O[C@H](COP(=O)([O-])O)[C@@H](O)[C@H]1O
- IC50 [1]: > 50 µM

Compound: CCN(C)c1nc2c(c(=O)[nH]1)[n+](C)cn2[C@@H]1O[C@H](COP(=O)([O-])O)[C@@H](O)[C@H]1O
- IC50 [1]: 13.9 µM

Compound: COc1ccc(CNc2nc3c(c(=O)[nH]2)[n+](C)cn3[C@@H]2O[C@H](COP(=O)([O-])O)[C@@H](O)[C@H]2O)cc1
- Ratio IC50 [2]: 7
- IC50 [1]: 0.9 µM
